Measurements from ChEMBL document CHEMBL1201862, “PubChem BioAssay data set” (2004).
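Values below derive from 48-hour exposures of cells grown in 96-well plates, with endpoints linearly interpolated between the two concentrations bracketing the appropriate inhibition level. GI50 = concentration required for 50% inhibition of growth.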 The source made the active and inactive calls. No stated cut-off is given here; in the data, active = GI50 up to about 1.1 µM and inactive = higher.

Legend:
Test in all cases: NCI anticancer screen, dose series, 48 h
[1] = system: SK-MEL-28
[2] = system: HT-29
[3] = system: 786-0
[4] = system: DU-145
[5] = system: HCT-15
[6] = system: TK-10
[7] = system: UACC-257
[8] = system: RXF 393
[9] = system: COLO 205
[10] = system: SNB-19
[11] = system: NCI-H522
[12] = system: M14
[13] = system: MDA-N
[14] = system: SW-620
[15] = system: KM12
[16] = system: HOP-62
[17] = system: UACC-62
[18] = system: SF-295
[19] = system: NCI/ADR-RES
[20] = system: A549
[21] = system: NCI-H460
[22] = system: SF-268
[23] = system: SK-MEL-5
[24] = system: MDA-MB-231
[25] = system: SK-OV-3
[26] = system: MDA-MB-435
[27] = system: HOP-92
[28] = system: NCI-H226
[29] = system: HCC 2998
[30] = system: RPMI-8226
[31] = system: SNB-75
[32] = system: OVCAR-5
[33] = system: ACHN
[34] = system: Malme-3M
[35] = system: MCF7
[36] = system: U-251
[37] = system: OVCAR-4
[38] = system: A498
[39] = system: UO-31
[40] = system: BT-549
[41] = system: K562
[42] = system: HCT-116
[43] = system: PC-3
[44] = system: SK-MEL-2
[45] = system: SN12C
[46] = system: MOLT-4
[47] = system: EKVX
[48] = system: NCI-H23
[49] = system: CAKI-1
[50] = system: CCRF-CEM
[51] = system: OVCAR-3
[52] = system: LOX IMVI
[53] = system: IGROV-1
[54] = system: OVCAR-8
[55] = system: SR
[56] = system: SF-539
[57] = system: Hs-578T
[58] = system: T47D
[59] = system: HL-60

Measured: GI50

COc1ccc(NCn2nc(CCCCCCCCc3nn(CNc4ccc(OC)cc4)c(=S)o3)oc2=S)cc1
> 100 µM: [5]
inactive: [1] > 100 µM | [2] > 100 µM | [3] > 100 µM | [4] > 100 µM | [6] > 100 µM | [7] > 100 µM | [8] > 100 µM | [9] > 100 µM | [10] > 100 µM | [11] > 100 µM | [12] > 100 µM | [13] > 100 µM | [14] > 100 µM | [15] > 100 µM | [16] > 100 µM | [17] > 100 µM | [18] > 100 µM | [19] > 100 µM | [20] > 100 µM | [21] > 100 µM | [22] > 100 µM | [23] > 100 µM | [24] > 100 µM | [25] > 100 µM | [26] > 100 µM | [27] > 100 µM | [28] > 100 µM | [29] > 100 µM | [30] > 100 µM | [31] > 100 µM | [32] > 100 µM | [33] > 100 µM | [34] > 100 µM | [35] > 100 µM | [36] > 100 µM | [37] > 100 µM | [38] > 100 µM | [39] > 100 µM | [40] > 100 µM | [41] > 100 µM | [42] 21 µM | [43] > 100 µM | [44] > 100 µM | [45] > 100 µM | [46] > 100 µM | [47] > 100 µM | [48] > 100 µM | [49] > 100 µM

Cn1c(N=[N+]=[N-])cc(=O)n(C)c1=O
> 100 µM: [5]
inactive: [2] > 100 µM | [50] > 100 µM | [3] > 100 µM | [6] > 100 µM | [7] > 100 µM | [8] > 100 µM | [9] > 100 µM | [10] > 100 µM | [51] > 100 µM | [52] > 100 µM | [11] > 100 µM | [12] > 100 µM | [13] > 100 µM | [14] > 100 µM | [53] > 100 µM | [15] > 100 µM | [16] > 100 µM | [17] > 100 µM | [18] > 100 µM | [19] > 100 µM | [20] > 100 µM | [21] > 100 µM | [22] > 100 µM | [23] > 100 µM | [24] > 100 µM | [54] > 100 µM | [25] > 100 µM | [55] > 100 µM | [26] > 100 µM | [27] > 100 µM | [28] > 100 µM | [29] > 100 µM | [30] > 100 µM | [32] > 100 µM | [56] > 100 µM | [33] > 100 µM | [34] > 100 µM | [36] > 100 µM | [37] > 100 µM | [38] > 100 µM | [39] > 100 µM | [40] > 100 µM | [41] > 100 µM | [42] > 100 µM | [43] > 100 µM | [44] > 100 µM | [45] > 100 µM | [46] > 100 µM | [47] > 100 µM | [48] > 100 µM | [57] > 100 µM | [58] > 100 µM | [49] > 100 µM

c1ccc(CNC2CC(NCc3ccccn3)CC(NCc3ccccn3)C2)nc1 (centres undefined)
4.72 µM: [5]
inactive: [1] 3.08 µM | [50] 2.61 µM | [3] 2.38 µM | [4] 4.73 µM | [6] 3.45 µM | [7] 4.53 µM | [51] 4.08 µM | [11] 4.6 µM | [13] 4.47 µM | [14] 6.61 µM | [53] 4.38 µM | [15] 2.7 µM | [16] 6.89 µM | [18] 6.21 µM | [20] 2.61 µM | [21] 5.15 µM | [22] 5 µM | [23] 3.54 µM | [25] 4.46 µM | [26] 4.5 µM | [27] 4.67 µM | [28] 3.32 µM | [31] 4.27 µM | [33] 9.51 µM | [34] 3.52 µM | [35] 3.5 µM | [37] 4.13 µM | [38] 3.05 µM | [39] > 25 µM | [40] 5.27 µM | [42] 3.1 µM | [44] 5.11 µM | [45] 5.22 µM | [46] 3.39 µM | [57] 7.66 µM | [58] 5.66 µM
active: [9] 1.09 µM

COc1ccc(/C(C)=N/NC(=O)c2ccncc2)cc1OC
inactive: [50] > 10 µM | [3] > 10 µM | [4] > 10 µM | [7] > 10 µM | [9] > 10 µM | [52] > 10 µM | [12] > 10 µM | [13] > 10 µM | [59] > 10 µM | [14] > 10 µM | [53] > 10 µM | [15] > 10 µM | [16] > 10 µM | [17] > 10 µM | [19] > 10 µM | [20] > 10 µM | [21] > 10 µM | [22] > 10 µM | [23] > 10 µM | [24] > 10 µM | [25] > 10 µM | [55] > 10 µM | [27] > 10 µM | [28] 2.82 µM | [29] > 10 µM | [30] > 10 µM | [31] > 10 µM | [56] > 10 µM | [34] > 10 µM | [35] > 10 µM | [36] > 10 µM | [37] > 10 µM | [38] > 10 µM | [39] 9.08 µM | [40] > 10 µM | [41] > 10 µM | [45] > 10 µM | [46] > 10 µM | [48] > 10 µM | [57] 7.05 µM | [58] > 10 µM | [49] > 10 µM
> 10 µM: [5]

O=c1cc(NNc2cccc(F)c2)[nH]c(=S)[nH]1
inactive: [1] > 100 µM | [2] > 100 µM | [3] 44.3 µM | [4] > 100 µM | [6] > 100 µM | [7] > 100 µM | [9] 77.1 µM | [10] > 100 µM | [51] 26.9 µM | [52] 49.3 µM | [12] > 100 µM | [13] > 100 µM | [59] 71.9 µM | [14] > 100 µM | [53] > 100 µM | [15] 96.8 µM | [16] > 100 µM | [18] > 100 µM | [19] > 100 µM | [20] > 100 µM | [21] > 100 µM | [22] 1.97 µM | [23] > 100 µM | [24] > 100 µM | [54] > 100 µM | [55] > 100 µM | [26] > 100 µM | [27] 19.2 µM | [28] > 100 µM | [29] 63.4 µM | [30] 42.4 µM | [32] > 100 µM | [56] > 100 µM | [33] > 100 µM | [34] > 100 µM | [35] 61.5 µM | [36] 54.6 µM | [37] > 100 µM | [38] > 100 µM | [39] > 100 µM | [40] > 100 µM | [41] 61.4 µM | [42] > 100 µM | [43] > 100 µM | [45] > 100 µM | [47] > 100 µM | [57] > 100 µM
54.1 µM: [5]

Cn1c(=O)sc2cc(C(=S)N3CCN(c4ccccc4)CC3)ccc21
inactive: [1] 97.1 µM | [2] > 100 µM | [50] 40.7 µM | [3] 44 µM | [4] > 100 µM | [6] 71.9 µM | [7] > 100 µM | [8] 30.5 µM | [9] > 100 µM | [10] 45.3 µM | [51] 54.8 µM | [52] 53.5 µM | [12] > 100 µM | [13] > 100 µM | [59] 33.6 µM | [14] > 100 µM | [53] 46.5 µM | [15] > 100 µM | [16] 18.5 µM | [17] 31.8 µM | [18] 19.9 µM | [19] 50 µM | [21] 51.9 µM | [22] 29.9 µM | [23] > 100 µM | [24] 27.6 µM | [54] 38.4 µM | [25] 32.3 µM | [55] 6.67 µM | [26] > 100 µM | [28] 55.3 µM | [30] > 100 µM | [31] 28.7 µM | [32] 97.1 µM | [56] 24.4 µM | [33] 70.3 µM | [34] 42.3 µM | [35] 64.3 µM | [36] 16 µM | [38] > 100 µM | [40] 60.7 µM | [41] > 100 µM | [42] 85.5 µM | [43] 31.3 µM | [44] 56 µM | [45] 50.6 µM | [46] > 100 µM | [47] 44.3 µM | [48] 34.1 µM | [57] 55.8 µM | [49] > 100 µM
39.4 µM: [5]
